Measured values reported in US11040035B2, “3-oxo-2,6-diphenyl-2,3-dihydropyridazine-4-carboxamides” (BAYER PHARMA AKTIENGESELLSCHAFT, priority 2016, dated 2021).

Tests used:
AHR [1] = target: T1, AHR (Homo sapiens, UniProt P35869); assay: In vitro assay 2: agonism in human cell line (transactivation assay)
T1 sequence (P35869 11-848): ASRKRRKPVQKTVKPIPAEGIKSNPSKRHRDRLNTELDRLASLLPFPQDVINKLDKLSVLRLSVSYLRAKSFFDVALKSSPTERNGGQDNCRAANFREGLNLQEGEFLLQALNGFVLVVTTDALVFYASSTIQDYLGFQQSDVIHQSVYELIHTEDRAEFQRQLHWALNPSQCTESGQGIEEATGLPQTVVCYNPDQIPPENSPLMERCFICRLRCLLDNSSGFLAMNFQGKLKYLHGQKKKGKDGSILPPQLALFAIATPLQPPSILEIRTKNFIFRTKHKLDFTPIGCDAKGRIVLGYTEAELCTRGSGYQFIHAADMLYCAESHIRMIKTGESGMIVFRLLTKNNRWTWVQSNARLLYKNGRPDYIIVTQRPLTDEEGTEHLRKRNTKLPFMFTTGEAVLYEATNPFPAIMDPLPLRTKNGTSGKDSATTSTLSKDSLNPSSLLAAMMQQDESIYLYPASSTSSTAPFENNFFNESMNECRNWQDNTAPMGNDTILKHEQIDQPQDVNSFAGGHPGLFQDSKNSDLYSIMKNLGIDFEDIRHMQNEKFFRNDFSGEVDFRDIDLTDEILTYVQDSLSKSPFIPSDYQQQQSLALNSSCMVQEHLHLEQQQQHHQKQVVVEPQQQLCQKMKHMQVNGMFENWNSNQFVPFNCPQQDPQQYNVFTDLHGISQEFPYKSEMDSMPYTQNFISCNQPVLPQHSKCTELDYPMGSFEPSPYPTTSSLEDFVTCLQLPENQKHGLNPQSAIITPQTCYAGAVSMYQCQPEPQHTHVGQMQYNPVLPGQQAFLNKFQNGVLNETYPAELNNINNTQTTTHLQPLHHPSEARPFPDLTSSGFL

AHR [2] = target: T1, AHR; assay: In vitro assay 1: antagonism in human cell line (transactivation assay, kynurenic acid prestimulated)
[3] = read-out: Assay 2: AHR-luc Hum Agonism IC50, no kynurenic acid, 20 hours, firefly luciferase
[4] = Assay 2: AHR-luc Hum Agonism IC50 [M], no kynurenic acid, 20 hours, firefly luciferase
[5] = Assay 1: AHR-luc Hum Antagonism IC50 [M], 150 μM kynurenic acid, 20 hours, firefly luciferase

Compound | IC50 (AHR [1]; [3]) [M] | IC50 (AHR [2]; read-out: Assay 1: AHR-luc Hum Antagonism IC50, 150 μM kynurenic acid, 20 hours, firefly luciferase) [M] | IC50 (AHR [1]; [4]) [M] | IC50 (AHR [2]; [5]) [M]
2-(3-Fluorophenyl)-N-{(2-hydroxy-1-[tetrahydrofuran-3-yl]ethyl}-6-(4-methoxyphenyl)-3-oxo-2,3-dihydropyridazine-4-carboxamide [Example 158] | > 2e-05 | 2.75e-07 |  | 
CC(NC(=O)c1cc(-c2ccc(Cl)cc2)nn(-c2cccc(F)c2)c1=O)C(O)C(F)(F)F (mixture of isomers) [Example 217, Isomeric mixture no. 1 of 6-(4-chlorophenyl)-2-(3-fluorophenyl)-3-oxo-N-(4,4,4-trifluoro-3-hydroxybutan-2-yl)-2,3-dihydropyridazine-4-carboxamide] |  |  | > 2e-05 | 
O=C(NCC(O)C1CC1)c1cc(-c2ccc(Cl)cc2)nn(-c2cccc(F)c2)c1=O (racemic) [Example 190, 6-(4-Chlorophenyl)-N-[(2RS)-2-cyclopropyl-2-hydroxyethyl]-2-(3-fluorophenyl)-3-oxo-2,3-dihydropyridazine-4-carboxamide] |  |  | > 2e-05 | 2.77e-07
O=C(NC(CO)C1CC1)c1cc(-c2ccc(Cl)cc2)nn(-c2cccc(F)c2)c1=O (racemic) [Example 193, 6-(4-Chlorophenyl)-N-[(1RS)-1-cyclopropyl-2-hydroxyethyl]-2-(3-fluorophenyl)-3-oxo-2,3-dihydropyridazine-4-carboxamide] |  |  | > 2e-05 | 2.52e-08
CC(CO)CNC(=O)c1cc(-c2ccc(Cl)cc2)nn(-c2cccc(F)c2)c1=O (racemic) [Example 200, 6-(4-Chlorophenyl)-2-(3-fluorophenyl)-N-[(2RS)-3-hydroxy-2-methylpropyl]-3-oxo-2,3-dihydropyridazine-4-carboxamide] |  |  | > 2e-05 | 7.5e-08
CC(O)CCNC(=O)c1cc(-c2ccc(Cl)cc2)nn(-c2cccc(F)c2)c1=O (racemic) [Example 203, 6-(4-Chlorophenyl)-2-(3-fluorophenyl)-N-[(3RS)-3-hydroxybutyl]-3-oxo-2,3-dihydropyridazine-4-carboxamide] |  |  | > 2e-05 | 2.13e-07
CC(CCO)NC(=O)c1cc(-c2ccc(Cl)cc2)nn(-c2cccc(F)c2)c1=O (racemic) [Example 206, 6-(4-Chlorophenyl)-2-(3-fluorophenyl)-N-[(2RS)-4-hydroxybutan-2-yl]-3-oxo-2,3-dihydropyridazine-4-carboxamide] |  |  | > 2e-05 | 6.25e-08
CC(NC(=O)c1cc(-c2ccc(Cl)cc2)nn(-c2cccc(F)c2)c1=O)C(O)C(F)(F)F (racemic) [Example 216, 6-(4-Chlorophenyl)-2-(3-fluorophenyl)-3-oxo-N-[(2RS,3RS)-4,4,4-trifluoro-3-hydroxybutan-2-yl]-2,3-dihydropyridazine-4-carboxamide and 6-(4-Chlorophenyl)-2-(3-fluorophenyl)-3-oxo-N-[(2RS,3SR)-4,4,4-trifluoro-3-hydroxybutan-2-yl]-2,3-dihydropyridazine-4-carboxamide] |  |  | > 2e-05 | 1.16e-07
O=C(NCC(O)C(F)F)c1cc(-c2ccc(Cl)cc2)nn(-c2cccc(F)c2)c1=O (racemic) [Example 221, 6-(4-Chlorophenyl)-N-[(2RS)-3,3-difluoro-2-hydroxypropyl]-2-(3-fluorophenyl)-3-oxo-2,3-dihydropyridazine-4-carboxamide] |  |  | > 2e-05 | 7.64e-08
O=C(NC(CO)CCO)c1cc(-c2ccc(Cl)cc2)nn(-c2cccc(F)c2)c1=O (racemic) [Example 224, 6-(4-Chlorophenyl)-N-[(2RS)-1,4-dihydroxybutan-2-yl]-2-(3-fluorophenyl)-3-oxo-2,3-dihydropyridazine-4-carboxamide] |  |  | > 2e-05 | 2.79e-07
COCCC(CO)NC(=O)c1cc(-c2ccc(Cl)cc2)nn(-c2cccc(F)c2)c1=O (racemic) [Example 227, 6-(4-Chlorophenyl)-2-(3-fluorophenyl)-N-[(2RS)-1-hydroxy-4-methoxybutan-2-yl]-3-oxo-2,3-dihydropyridazine-4-carboxamide] |  |  | > 2e-05 | 3.57e-07
O=C(NC(CO)C1CCCO1)c1cc(-c2ccc(Cl)cc2)nn(-c2cccc(F)c2)c1=O (racemic) [Example 230, 3,6-Anhydro-2-({[6-(4-chlorophenyl)-2-(3-fluorophenyl)-3-oxo-2,3-dihydropyridazin-4-yl]carbonyl}amino)-2,4,5-trideoxy-DL-erythro-hexitol and 1,4-anhydro-5-({[6-(4-chlorophenyl)-2-(3-fluorophenyl)-3-oxo-2,3-dihydropyridazin-4-yl]carbonyl}amino)-2,3,5-trideoxy-DL-threo-hexitol] |  |  | > 2e-05 | 1.37e-07
CC(O)C(NC(=O)c1cc(-c2ccc(C(F)(F)F)cc2)nn(-c2cccc(F)c2)c1=O)C(F)(F)F (racemic) [Example 260, 2-(3-Fluorophenyl)-3-oxo-N-[(2RS,3RS)-1,1,1-trifluoro-3-hydroxybutan-2-yl]-6-[4-(trifluoromethyl)phenyl]-2,3-dihydropyridazine-4-carboxamide or 2-(3-fluorophenyl)-3-oxo-N-[(2SR,3RS)-1,1,1-trifluoro-3-hydroxybutan-2-yl]-6-[4-(trifluoromethyl)phenyl]-2,3-dihydropyridazine-4-carboxamide] |  |  | > 2e-05 | 
O=C(NC(CO)C(F)(F)F)c1cc(-c2ccc(C(F)(F)F)cc2)nn(-c2cccc(F)c2)c1=O (racemic) [Example 266, 2-(3-Fluorophenyl)-3-oxo-N-[(2RS)-1,1,1-trifluoro-3-hydroxypropan-2-yl]-6-[4-(trifluoromethyl)phenyl]-2,3-dihydropyridazine-4-carboxamide] |  |  | 7.84e-07 | 
CC(C)(O)C(NC(=O)c1cc(-c2ccc(C(F)(F)F)cc2)nn(-c2cccc(F)c2)c1=O)C(F)(F)F (single isomer, unassigned; (+)) [Example 395, (+)-2-(3-fluorophenyl)-3-oxo-N-(1,1,1-trifluoro-3-hydroxy-3-methylbutan-2-yl)-6-[4-(trifluoromethyl)phenyl]-2,3-dihydropyridazine-4-carboxamide] | > 2e-05 |  |  | 
Cc1ccc(-c2cc(C(=O)N[C@H](C)CO)c(=O)n(-c3cccc(F)c3)n2)cc1C [Example 90, 6-(3,4-dimethylphenyl)-2-(3-fluorophenyl)-N-[(2R)-1-hydroxypropan-2-yl]-3-oxo-2,3-dihydropyridazine-4-carboxamide] |  |  |  | 6.75e-07
O=C(N[C@@H]1CCC[C@@H]1O)c1cc(-c2ccc(Cl)cc2)nn(-c2cccc(F)c2)c1=O [Example 133, 6-(4-Chlorophenyl)-2-(3-fluorophenyl)-N-[(1R,2S)-2-hydroxycyclopentyl]-3-oxo-2,3-dihydropyridazine-4-carboxamide] |  |  | > 2e-05 | 
CC(C)[C@@H](CO)NC(=O)c1cc(-c2ccc(C(F)(F)F)cc2)nn(-c2cccc(F)c2)c1=O [Example 239, 2-(3-Fluorophenyl)-N-[(2S)-1-hydroxy-3-methylbutan-2-yl]-3-oxo-6-[4-(trifluoromethyl)phenyl]-2,3-dihydropyridazine-4-carboxamide] |  |  | > 2e-05 | 
CC(C)[C@H](CO)NC(=O)c1cc(-c2ccc(C(F)(F)F)cc2)nn(-c2cccc(F)c2)c1=O [Example 240, 2-(3-Fluorophenyl)-N-[(2R)-1-hydroxy-3-methylbutan-2-yl]-3-oxo-6-[4-(trifluoromethyl)phenyl]-2,3-dihydropyridazine-4-carboxamide] |  |  | 6.56e-08 | 
